No end group written: not given here.
Target: T1, human Rb construct (residues 53-787) binding Human E2F1 transactivation domain (Homo sapiens, UniProt P06400, DEL245-267/DEL582-642/S780A)
T1 construct: a human Rb construct (residues 53-787, delta245-267, delta582-642, S780A); made in house; host or cells: E. coli
T1 sequence (P06400 with tags, fused parts or gaps DEL245-267/DEL582-642/S780A): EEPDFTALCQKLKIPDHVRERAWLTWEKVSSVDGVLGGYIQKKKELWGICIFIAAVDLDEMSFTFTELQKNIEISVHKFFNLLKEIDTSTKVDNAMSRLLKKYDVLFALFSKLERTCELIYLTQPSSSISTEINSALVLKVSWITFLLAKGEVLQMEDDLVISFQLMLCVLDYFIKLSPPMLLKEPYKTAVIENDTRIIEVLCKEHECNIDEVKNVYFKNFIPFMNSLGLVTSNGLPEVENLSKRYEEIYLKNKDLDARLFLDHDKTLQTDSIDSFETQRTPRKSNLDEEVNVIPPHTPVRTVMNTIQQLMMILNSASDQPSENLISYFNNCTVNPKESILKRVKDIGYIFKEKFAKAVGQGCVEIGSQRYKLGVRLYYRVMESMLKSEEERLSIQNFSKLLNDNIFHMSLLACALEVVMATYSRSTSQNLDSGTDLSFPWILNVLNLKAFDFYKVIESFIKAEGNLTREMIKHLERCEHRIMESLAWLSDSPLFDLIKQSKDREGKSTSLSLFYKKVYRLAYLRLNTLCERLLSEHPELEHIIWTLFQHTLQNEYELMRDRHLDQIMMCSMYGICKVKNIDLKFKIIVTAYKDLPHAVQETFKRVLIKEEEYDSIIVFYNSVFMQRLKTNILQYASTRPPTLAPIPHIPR
Assay: Isothermal titration calorimetry of E2F binding to Rb (Rb activity)
Conditions: in vitro, phosphorylated Rb
From the text: The inventors have developed an assay for measuring the degree of binding between Rb and E2F. Rb inactivation corresponds to E2F binding inhibition. If you can prevent E2F binding to Rb, then you inactivate Rb, its tumor suppressing action decreases and the cell cycle continues from G1 to S and unregulated cell division occurs. Inactivation occurs upon Rb phosphorylation by Cdk. The inventors have discovered that in the presence of ‘LxCxE’ peptide, E2F inhibition is prevented upon phosphorylation.
The […] peptide was made synthetically using standard peptide synthesis. Human E2F1 transactivation domain (residues […]) and a human Rb construct (residues 53-787, delta245-267, delta582-642, S780A) were produced recombinantly in E. coli and purified to homogeneity. Rb was phosphorylated with recombinant Cdk as described.
Rb activity, defined as its ability to bind E2F, was assayed by isothermal titration calorimetry to measure quantitatively E2F binding affinity. About 50 micromolar (μm) Rb was used in the calorimetry cell and E2F was titrated in at a concentration of ˜1 mM. Standard protocols were used to determine Kd. In the experiment with the […] peptide, the peptide was first added to the cell before E2F to saturate Rb.

DLYCYEQLN [DLYCYEQLN peptide, DLYCYEQLN]
inhibition of Rb inactivation (effect of phosphorylation on E2F-Rb binding): inhibits the weakening effect of phosphorylation on E2F-Rb binding
